Series [1] relates to LG1 IgG antibody. Kind of series: Binding of radiolabeled IMP 236 by LG1 on size-exclusion HPLC. The arrangement: species or system mouse. Particulars: mixed with excess LG1; SE-HPLC shift. The method, then:
Typical procedures for the production of radiolabeled DOTA-peptides incorporating, for example, Y-90 and Lu-177 are as follows. Of particular importance is the maximum specific activity achievable, which depends on the quality of the isotope. The radionuclide, obtained in an acidic solution, is treated with an excess of an acetate buffer, to a final pH of 4-6, and added to the DOTA-peptide conjugate, also in acetate buffer. All manipulations are carried out using acid-washed and metal-free components. The labeling mixture is heated at 45° C. for one hour and then allowed to cool to room temperature. Radiolabeled peptides are analyzed by RP-HPLC to determine incorporation, and are tested for binding to LG1, by mixing with a small excess of the LG1 mAb, and testing by analytical size-exclusion HPLC.
Yttrium-90 (^˜400 uCi per kit) is diluted to 1 mL in deionized water and added in one portion to the lyophilized IMP 236 kits of example 12. The kits are heated in a boiling water-bath for 15 min, and the vials then cooled to room temperature. The Y-90 radiolabeled peptides are analyzed by reverse-phase HPLC. […]
Indium-111 [In-111] radionuclide (^˜300 uCi added per kit) is diluted to 0.5 mL in deionized water and added to the lyophilized kits. […] The labeled peptide vials are cooled to room temperature and evaluated by reverse-phase HPLC. […]
(In gel filtration, larger molecules generally elute earlier.)

The test system of series [2] is human colonic tumor cell line, termed GW-39. Kind of series: Biodistribution in nude mice bearing GW-39 tumors. The arrangement: species or system NcR athymic nude mice. Particulars: mouse, in vivo. As for the experimental part:
NcR athymic nude mice are implanted with cells of the human colonic tumor cell line, termed GW-39. When tumors have reached an appropriate size (>100 mm^3) agents are injected. The I-125-radioiodinated msAb is given first, and at different later times the In-111-IMP-236 is administered. The latter radiolabeled peptide is also given alone to a control group of animals. Doses given to each animal are 1.5×10^−10 moles of I-125-hMN-14×mLG1 (8 uCi of I-125 per animal), and 1.5×10^−11 moles of In-111-IMP-236. At specified times post-injection of the labeled IMP-236 animals are sacrificed and major internal tissues are collected and quantified for both I-125 and In-111 radioactivity.

Series [3] concerns hMN-14-DOTA-yttrium-90. Briefly: Qualitative binding on size-exclusion HPLC. Particulars: SE-HPLC.
Series [4] deals with hLL2-DOTA. Briefly: Qualitative binding on size-exclusion HPLC. Particulars: SE-HPLC. From the text: (§1) The msAb, LG1×hMN-14 (Fab′×Fab) is shown by the same analysis to bind to hLL2-DOTA-yttrium.
Series [5] relates to hLL2-DOTA-yttrium. Briefly: Qualitative binding on size-exclusion HPLC. Particulars: SE-HPLC.
Source text: as §1

Where a SMILES comes first, the peptide text is derived from it. The star is where a group is joined. DOTA = O=C(O)CN1CCN(CC(=O)O)CCN(CC(=O)*)CCN(CC(=O)O)CC1

Regarding “Ac-Phe-Lys(DOTA)-Tyr-Lys(DOTA)-NH2 (Ac-FK(DOTA)YK(DOTA)-NH2; SMILES CC(=O)N[C@@H](Cc1ccccc1)C(=O)N[C@@H](CCCCNC(=O)CN1CCN(CC(=O)O)CCN(CC(=O)O)CCN(CC(=O)O)CC1)C(=O)N[C@@H](Cc1ccc(O)cc1)C(=O)N[C@@H](CCCCNC(=O)CN1CCN(CC(=O)O)CCN(CC(=O)O)CCN(CC(=O)O)CC1)C(N)=O) [IMP 236]”, the “binding of radiolabeled peptide by LG1” value in series [1] is “bind strongly”.

Consider `CC(=O)N[C@@H](Cc1ccccc1)C(=O)N[C@@H](CCCCNC(=O)CN1CCN(CC(=O)O)CCN(CC(=O)O)CCN(CC(=O)O)CC1)C(=O)N[C@@H](Cc1ccc(O)cc1)C(=O)N[C@@H](CCCCNC(=O)CN1CCN(CC(=O)O)CCN(CC(=O)O)CCN(CC(=O)O)CC1)C(N)=O` [In-111-IMP-236, metal not drawn] (Ac-FK(DOTA)YK(DOTA)-NH2), for which, in series [2], the “Blood, 30 minutes” value is reported as 1.0 ± 0.3 percent injected dose per gram of tissue; the “Blood, 3 h” value is on record as 0.0 ± 0.0 percent injected dose per gram of tissue; the “Blood, 24 h” value is on record as 0.0 ± 0.0 percent injected dose per gram of tissue; the “Blood, In-111, 3 h” value is listed as 0.4 ± 0.0 percent injected dose per gram of tissue. In addition, in series [2], the “Blood, In-111, 24 h” value was 0.0 ± 0.0 percent injected dose per gram of tissue; the “Kidney, 30 minutes” value is recorded as 4.2 ± 0.7 percent injected dose per gram of tissue; the “Kidney, 3 h” value is on record as 2.2 ± 0.2 percent injected dose per gram of tissue; the “Kidney, 24 h” value is 0.0 ± 0.0 percent injected dose per gram of tissue. In series [2], the “Kidney, In-111, 3 h” value is 2.5 ± 0.6 percent injected dose per gram of tissue; the “Kidney, In-111, 24 h” value is on record as 1.0 ± 0.2 percent injected dose per gram of tissue; the “Liver, 30 minutes” value was 0.3 ± 0.1 percent injected dose per gram of tissue; the “Liver, 3 h” value is 0.2 ± 0.1 percent injected dose per gram of tissue. In series [2], the “Liver, 24 h” value is on record as 0.0 ± 0.0 percent injected dose per gram of tissue; the “Liver, In-111, 3 h” value is recorded as 0.2 ± 0.0 percent injected dose per gram of tissue; the “Liver, In-111, 24 h” value is 0.1 ± 0.0 percent injected dose per gram of tissue; the “Lungs, 30 minutes” value is recorded as 0.7 ± 0.2 percent injected dose per gram of tissue. In series [2], the “Lungs, 3 h” value is 0.1 ± 0.0 percent injected dose per gram of tissue; the “Lungs, 24 h” value was 0.0 ± 0.0 percent injected dose per gram of tissue; the “Lungs, In-111, 3 h” value is 0.2 ± 0.0 percent injected dose per gram of tissue; the “Lungs, In-111, 24 h” value is recorded as 0.0 ± 0.0 percent injected dose per gram of tissue. Besides, in series [2], the “Spleen, 30 minutes” value is recorded as 0.3 ± 0.1 percent injected dose per gram of tissue; the “Spleen, 3 h” value is on record as 0.1 ± 0.0 percent injected dose per gram of tissue; the “Spleen, 24 h” value is listed as 0.0 ± 0.0 percent injected dose per gram of tissue; the “Spleen, In-111, 3 h” value is 0.2 ± 0.0 percent injected dose per gram of tissue. Further, in series [2], the “Spleen, In-111, 24 h” value is listed as 0.1 ± 0.0 percent injected dose per gram of tissue; the “Stomach, 30 minutes” value is 0.2 ± 0.1 percent injected dose per gram of tissue; the “Stomach, 3 h” value is on record as 0.0 ± 0.0 percent injected dose per gram of tissue; the “Stomach, 24 h” value is given as 0.0 ± 0.0 percent injected dose per gram of tissue. Also, in series [2], the “Stomach, In-111, 3 h” value is 0.1 ± 0.2 percent injected dose per gram of tissue; the “Stomach, In-111, 24 h” value was 0.0 ± 0.0 percent injected dose per gram of tissue; the “Tumor, 30 minutes” value was 1.6 ± 0.3 percent injected dose per gram of tissue; the “Tumor, 3 h” value is 0.1 ± 0.0 percent injected dose per gram of tissue. Besides, in series [2], the “Tumor, 24 h” value is 0.0 ± 0.0 percent injected dose per gram of tissue; the “Tumor, In-111, 3 h” value is on record as 6.4 ± 1.1 percent injected dose per gram of tissue; the “Tumor, In-111, 24 h” value is recorded as 1.3 ± 0.3 percent injected dose per gram of tissue; the elimination entry is reported as “quickly eliminated via the renal system”.

B1: Fab fragment of LG1: Fab fragment from ficin digestion of LG1 IgG (antibody, V domains shown)
VH: EVMLVESGGGLVKPGGSLTLSCAASGFTFTAHAMSWVRQTPEKRLEWVATISGGGTYTYFPDSFQGRFTISSDNAKNTLYLQMSSLRSEDTSMYFCTRHGDYRYAFGYWGQGTLVTVSA
VL: VVTQESALTTSPGETVTLTCRSSSGAVTTNNYANWVQEKPDHLFTGLIGGTNNRAPGVPARFSGSLIGDKAALTITGAQTEDEAIYFCALWFSDHWVFGGGTELTVLG
Take B1: in series [3], the “binding to hMN-14-DOTA-yttrium-90” value is reported as “positive binding”. Further, the “binding to hLL2-DOTA” value in series [4] is “positive binding”. Besides, in series [5], the “binding to hLL2-DOTA-yttrium” value is recorded as “positive binding”.

The record behind these values is patent publication US7230085B2, “Anti-DOTA antibody” (Immunomedics, Inc., priority 2001, dated 2007).
